Measurements published in patent US6777412B2 (priority 1990, dated 2004).
Like-named read-outs stand apart in the source and are kept apart here. Marks after values point to notes of the source that are not given here.

What was measured:
Cercospora arachidicola = test: Foliar fungal disease test on plants: Cercospora arachidicola (Ca); type: in vivo
Method: The compounds were tested against a variety of foliar fungal diseases of plants. The technique employed was as follows.
The plants were grown in John Innes Potting Compost (No.1 or 2) in 4 cm diameter minipots. The test compounds were formulated either by bead milling with aqueous Dispersol T or as a solution in acetone or acetone/ethanol which was diluted to the required concentration immediately before use. For the foliage diseases, the formulations (100 ppm active ingredient except where otherwise indicated) were sprayed onto the foliage and applied to the roots of the plants in the soil. The sprays were applied to maximum retention and the root drenches to a final concentration equivalent to approximately 40 ppm a.i. in dry soil. Tween 20, to give a final concentration of 0.05%, was added when the sprays were applied to cereals.
For most of the tests the compound was applied to the soil (roots) and to the foliage (by spraying) one or two days before the plant was inoculated with the disease. An exception was the test on Erysiphe graminis in which the plants were inoculated 24 hours before treatment. Foliar pathogens were applied by spray as spore suspensions onto the leaves of test plants. After inoculation, the plants were put into an appropriate environment to allow infection to proceed and then incubated until the disease was ready for assessment. The period between inoculation and assessment varied from four to fourteen days according to the disease and environment.
The disease control vas recorded by the following grading:
3=trace-5% of disease on untreated plants
2=6-25% of disease on untreated plants
1=26-59% of disease on untreated plants
0=60-100% of disease on untreated plants
Ca Cercospora arachidicola

[1] = tested on: Phytophthora infestans lycopersici; type: in vivo
Erysiphe graminis hordei = test: Foliar fungal disease test on plants: Erysiphe graminis hordei (Egh); type: in vivo
Pyricularia oryzae = type: in vivo
Puccinia recondita = test: Foliar fungal disease test on plants: Puccinia recondita (Pr); type: in vivo
Method in brief: (§1)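 Potted plants treated by foliar spray to maximum retention (100 ppm a.i. unless stated) plus root drench (~40 ppm a.i. in dry soil), with 0.05% Tween 20 on cereals, one or two days before spore-suspension inoculation.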

Plasmopara viticola = test: Foliar fungal disease test on plants: Plasmopara viticola (Pv); type: in vivo
Method in brief: as §1

Venturia inaequalis = test: Foliar fungal disease test on plants: Venturia inaequalis (Vi); type: in vivo
Method in brief: as §1

[2] = 100 ppm active ingredient foliar spray plus root drench (approx. 40 ppm a.i. in dry soil), one or two days before inoculation
[3] = 100 ppm active ingredient foliar spray plus root drench (approx. 40 ppm a.i. in dry soil), plants inoculated 24 hours before treatment

Row | Structure (SMILES) | melting point [°C] | disease control grading, Ca (Cercospora arachidicola) (Cercospora arachidicola; 10 ppm foliar application only) | disease control grading, Pil (Phytophthora infestans lycopersici) ([1]; 10 ppm foliar application only) | disease control grading, Egh (Erysiphe graminis hordei) (Erysiphe graminis hordei; 10 ppm foliar application only) | disease control grading, Po (Pyricularia oryzae) (Pyricularia oryzae; 10 ppm foliar application only) | disease control grading, Pr (Puccinia recondita) (Puccinia recondita; 10 ppm foliar application only) | disease control grading, Pv (Plasmopara viticola) (Plasmopara viticola; 10 ppm foliar application only) | disease control grading, Vi (Venturia inaegualis) (Venturia inaequalis; 10 ppm foliar application only) | disease control grading, Ca (Cercospora arachidicola) (Cercospora arachidicola; [2]) | disease control grading, Pil (Phytophthora infestans lycopersici) [1, 2] | disease control grading, Egh (Erysiphe graminis hordei) (Erysiphe graminis hordei; [3]) | disease control grading, Po (Pyricularia oryzae) (Pyricularia oryzae; [2]) | disease control grading, Pr (Puccinia recondita) (Puccinia recondita; [2]) | disease control grading, Pv (Plasmopara viticola) (Plasmopara viticola; [2]) | disease control grading, Vi (Venturia inaegualis) (Venturia inaequalis; [2])
1 | CO/C=C(/C(=O)OC)c1ccccc1Oc1cc(OCc2ccc([N+](=O)[O-])cc2)ncn1 | 96 to 98 |  |  |  |  |  |  |  |  |  |  |  |  |  | 
2 | COC=C(C(=O)OC)c1ccccc1Oc1nccc(-c2ccccc2)n1 [180 of Table III] |  | 3^a (3=trace-5% of disease on untreated plants) | 4^a (4=no disease) | 4^a (4=no disease) | 3^a (3=trace-5% of disease on untreated plants) | 4^a (4=no disease) | 4^a (4=no disease) | 4^a (4=no disease) |  |  |  |  |  |  | 
3 | CO/C=C(/C(=O)OC)c1ccccc1Oc1cc(Sc2ccccn2)ncn1 [218 of Table I] |  |  |  |  |  |  |  |  | 4 (4=no disease) | 3 (3=trace-5% of disease on untreated plants) | 4 (4=no disease) | 3 (3=trace-5% of disease on untreated plants) | 4 (4=no disease) | 4 (4=no disease) | 4 (4=no disease)
4 | CO/C=C(/C(=O)OC)c1ccccc1Oc1cc(Nc2ccccn2)ncn1 [220 of Table I] |  |  |  |  |  |  |  |  | 4 (4=no disease) | 0 (0=60-100% of disease on untreated plants) | 4 (4=no disease) | 4 (4=no disease) | 4 (4=no disease) | 4 (4=no disease) | 4 (4=no disease)
5 | CO/C=C(/C(=O)OC)c1ccccc1Oc1cc(Sc2ncccn2)ncn1 [239 of Table I] |  |  |  |  |  |  |  |  | 4 (4=no disease) | 4 (4=no disease) | 4 (4=no disease) | 3 (3=trace-5% of disease on untreated plants) | 4 (4=no disease) | 4 (4=no disease) | 4 (4=no disease)
6 | CO/C=C(/C(=O)OC)c1ccccc1Oc1cc(N(C)c2ccccc2C#N)ncn1 [354 of Table I] |  |  |  |  |  |  |  |  | 4 (4=no disease) | 0 (0=60-100% of disease on untreated plants) | 4 (4=no disease) | 3 (3=trace-5% of disease on untreated plants) | 4 (4=no disease) | 4 (4=no disease) | 4 (4=no disease)
7 | CO/C=C(/C(=O)OC)c1ccccc1Oc1cc(Nc2ccccc2C#N)ncn1 [377 of Table I] |  |  |  |  |  |  |  |  | 4 (4=no disease) | 4 (4=no disease) | 4 (4=no disease) | 0 (0=60-100% of disease on untreated plants) | 4 (4=no disease) | 4 (4=no disease) | 4 (4=no disease)
8 | CO/C=C(/C(=O)OC)c1ccccc1Oc1cc(N(C(=O)c2ccccc2)C(=O)c2ccccc2)ncn1 [398 of Table I] |  |  |  |  |  |  |  |  | 4 (4=no disease) | 4 (4=no disease) | 4 (4=no disease) | 3 (3=trace-5% of disease on untreated plants) | 4 (4=no disease) | 4 (4=no disease) | 4 (4=no disease)
